# From patent publication US4347319A, “Microbiological epoxidation process” (priority 1980, dated 1982)
# Key:
# Assay type in all cases: cell-based
# [1] = tested on: Methylomonas rubrum (CRL M6P) NRRL B-11,210; experiment: Oxidation by washed cell suspensions of methane-grown cells; settings: methane-grown washed cells, 30° C.; methane to methanol, alkene to 1,2-epoxide
# Procedure: (§1) The pH of the nutrient medium was adjusted to 7.0 by the addition of acid or base and 50 ml samples of the nutrient medium were charged into a plurality of 300 ml shaker flasks. The shaker flasks were inoculated with an inoculating loop of cells from an agar plate containing homogeneous colonies of the microorganisms on the plate (the purity of the isolates was confirmed by microscopic examination. The isolates had been maintained on agar plates under an atmosphere of methane and air having a 1:1 v/v gas ratio which had been transferred evey two weeks. The gaseous phase of the inoculated flasks was then replaced with a gas mixture comprised of methane and air having a ratio of 1:1 on a v/v basis. The inoculated flasks were sealed air tight and were incubated on a rotary shaker of orbital radius 2.5 cm at 250 rpm and at 30° C. for two days until turbidity in the medium had developed.
# (§2) The cells were harvested by centrifugation at 10,000×g. at 4° C. for 30 minutes. The cell pellet was washed twice with a 0.15 M phosphate buffer at a pH of 7.0 (containing 0.002 M MgCl2). The washed cells were then suspended in a 0.15 M phosphate buffer at pH 7.0.
# (§3) A 0.5 ml sample of each washed cell suspension (2 mg cells) was put into 10 ml vials at 4° C. which were sealed with a rubber cap. The gaseous phase of the vials was removed with vacuum and then was replaced with a gas mixture of the oxidative substrate (e.g., methane) and oxygen at a 1:1 v/v ratio. The vials were then incubated at 30 ° C. on a rotary shaker at 300 rpm. Samples of product (3 μl) were withdrawn periodically with a microsyringe and the products were analyzed by gas chromatography (ionization flame detector column).
# (§4) The newly discovered and isolated microorganism strains of the present invention were each grown aerobically in the presence of methane in the manner described above. The methane-grown microbial cells were then washed, recovered and put to use in oxidizing an oxidative substrate by the procedure described above except in the case of a liquid substrate 10 μl of the substrate were used.
# [2] = tested on: Methylomonas methanica (CRL 21 PM7) NRRL B-11,206; experiment: as above; settings: methane-grown washed cells, 30° C.; methane to methanol, alkene to 1,2-epoxide
# Procedure: as §1, §2, §3, §4
# [3] = tested on: Methylomonas methanica (CRL M4P) NRRL B-11,205; experiment: as above; settings: methane-grown washed cells, 30° C.; methane to methanol, alkene to 1,2-epoxide
# Procedure: as §1, §2, §3, §4
# [4] = tested on: Methylosinus sporium (CRL 16 PM2) NRRL B-11,203; experiment: as above; settings: methane-grown washed cells, 30° C.; methane to methanol, alkene to 1,2-epoxide
# Procedure: as §1, §2, §3, §4
# [5] = tested on: Methylomonas rosaceus (CRL M7P) NRRL B-11,213; experiment: as above; settings: 30° C., methane to methanol, alkene to 1,2-epoxide
# Procedure: as §1, §2, §3, §4
# [6] = tested on: Methylomonas rubrum (CRL 20 PM6) NRRL B-11,211; experiment: as above; settings: methane-grown washed cells, 30° C.; methane to methanol, alkene to 1,2-epoxide
# Procedure: as §1, §2, §3, §4
# [7] = tested on: Methylobacter vinelandii (CRL M5Y) NRRL B-11,218; experiment: as above; settings: methane-grown washed cells, 30° C.; methane to methanol, alkene to 1,2-epoxide
# Procedure: as §1, §2, §3, §4
# [8] = tested on: Methylococcus capsulatus (CRL M1) NRRL B-11,219; experiment: as above; settings: methane-grown washed cells, 30° C.; methane to methanol, alkene to 1,2-epoxide
# Procedure: as §1, §2, §3, §4
# [9] = tested on: Methylococcus minimus (CRL 24 PM12) NRRL B-11,220; experiment: as above; settings: methane-grown washed cells, 30° C.; methane to methanol, alkene to 1,2-epoxide
# Procedure: as §1, §2, §3, §4
# [10] = tested on: Methylosinus trichosporium (CRL 15 PM1) NRRL B-11,202; experiment: as above; settings: methane-grown washed cells, 30° C.; methane to methanol, alkene to 1,2-epoxide
# Procedure: as §1, §2, §3, §4
# [11] = tested on: Methylobacterium organophilum (CRL 26 R6) NRRL B-11,222; experiment: as above; settings: methane-grown washed cells, 30° C.; methane to methanol, alkene to 1,2-epoxide
# Procedure: as §1, §2, §3, §4
# [12] = tested on: Methylobacter chroococcum (CRL 23 PM8) NRRL B-11,215; experiment: as above; settings: methane-grown washed cells, 30° C.; methane to methanol, alkene to 1,2-epoxide
# Procedure: as §1, §2, §3, §4
# [13] = tested on: Methylococcus capsulatus (CRL 25 PM13) NRRL B-11,221; experiment: as above; settings: methane-grown washed cells, 30° C.; methane to methanol, alkene to 1,2-epoxide
# Procedure: as §1, §2, §3, §4
# [14] = tested on: Methylomonas albus (CRL M8Y) NRRL B-11,207; experiment: as above; settings: methane-grown washed cells, 30° C.; methane to methanol, alkene to 1,2-epoxide
# Procedure: as §1, §2, §3, §4
# [15] = tested on: Methylomonas agile (CRL 22 PM9) NRRL B-11,209; experiment: as above; settings: methane-grown washed cells, 30° C.; methane to methanol, alkene to 1,2-epoxide
# Procedure: as §1, §2, §3, §4
# [16] = tested on: Methylomonas streptobacterium (CRL 17 PM3) NRRL B-11,208; experiment: as above; settings: methane-grown washed cells, 30° C.; methane to methanol, alkene to 1,2-epoxide
# Procedure: as §1, §2, §3, §4
# [17] = tested on: Methylobacter bovis (CRL 19 PM5) NRRL B-11,217; experiment: as above; settings: methane-grown washed cells, 30° C.; methane to methanol, alkene to 1,2-epoxide
# Procedure: as §1, §2, §3, §4
# [18] = tested on: Methylobacter chroococcum (CRL M6) NRRL B-11,214; experiment: as above; settings: methane-grown washed cells, 30° C.; methane to methanol, alkene to 1,2-epoxide
# Procedure: as §1, §2, §3, §4
# [19] = tested on: Methylocystis parvus (CRL 18 PM4) NRRL B-11,204; experiment: as above; settings: methane-grown washed cells, 30° C.; methane to methanol, alkene to 1,2-epoxide
# Procedure: as §1, §2, §3, §4
# [20] = tested on: Methylomonas rosaceus (CRL M10P) NRRL B-11,212
# Procedure: as §1, §2, §3, §4
# [21] = tested on: Methylobacter bovis (CRL M1Y) NRRL B-11,216; experiment: Oxidation by washed cell suspensions of methane-grown cells; settings: methane-grown washed cells, 30° C.; methane to methanol, alkene to 1,2-epoxide
# Procedure: as §1, with “The inoculated flasks were sealed air tight and were incubated on a rotary shaker of orbital radius 2.5 cm at 250 rpm and at 30° C. for two days until turbidity in the medium had developed.” left out
# as §2, §3, §4
# [22] = tested on: methane-grown methylotrophic microorganisms; experiment: Epoxidation by methane-grown cells of the strains of the invention
# Procedure: as §1
# The cells were harvested by centrifugation at 10,000×g. at 4° C. for 30 minutes. The cell pellet was washed twice with a 0.15 M phosphate buffer at a pH of 7.0 (containing 0.002 M MgCl2). […]
# A 0.5 ml sample of each washed cell suspension (2 mg cells) was put into 10 ml vials at 4° C. which were sealed with a rubber cap. […] Samples of product (3 μl) were withdrawn periodically with a microsyringe and the products were analyzed by gas chromatography (ionization flame detector column). […]
structure (smiles),measurement,setting,value
C=C [Ethylene],Oxidative Conversion Rates,[1],0.7 μmole/hr/mg protein
same,Oxidative Conversion Rates,[2],2.1 μmole/hr/mg protein
same,Oxidative Conversion Rates,[3],1.0 μmole/hr/mg protein
same,Oxidative Conversion Rates,[4],1.3 μmole/hr/mg protein
same,Oxidative Conversion Rates,[5],2.9 μmole/hr/mg protein
same,Oxidative Conversion Rates,[6],1.1 μmole/hr/mg protein
same,Oxidative Conversion Rates,[7],1.2 μmole/hr/mg protein
same,Oxidative Conversion Rates,[8],5.7 μmole/hr/mg protein
same,Oxidative Conversion Rates,[9],1.2 μmole/hr/mg protein
same,Oxidative Conversion Rates,[10],2.5 μmole/hr/mg protein
same,Oxidative Conversion Rates,[11],0.9 μmole/hr/mg protein
same,Oxidative Conversion Rates,[12],1.2 μmole/hr/mg protein
same,Oxidative Conversion Rates,[13],0.8 μmole/hr/mg protein
same,Oxidative Conversion Rates,[14],1.8 μmole/hr/mg protein
same,Oxidative Conversion Rates,[15],2.2 μmole/hr/mg protein
same,Oxidative Conversion Rates,[16],0.7 μmole/hr/mg protein
same,Oxidative Conversion Rates,[17],1.3 μmole/hr/mg protein
same,Oxidative Conversion Rates,[18],1.6 μmole/hr/mg protein
same,Oxidative Conversion Rates,[19],0.9 μmole/hr/mg protein
same,Oxidative Conversion Rates,[20],4.7
same,Oxidative Conversion Rates,[21],0.64 μmole/hr/mg protein
C=CCCCC [hexene-1],epoxide product formation,[22],did not produce any detectable epoxide product
